In BindingDB's records for doi:10.1016/s0028-3908(97)00049-x (Roche Bioscience, 1997):

What was measured:
[1] = target: Gamma-aminobutyric acid receptor subunit alpha-1 (Rattus norvegicus, UniProt P62813)
[2] = target: T1, Muscarinic acetylcholine receptor M2 (Rattus norvegicus, UniProt P10980)
T1 sequence (P10980 whole entry): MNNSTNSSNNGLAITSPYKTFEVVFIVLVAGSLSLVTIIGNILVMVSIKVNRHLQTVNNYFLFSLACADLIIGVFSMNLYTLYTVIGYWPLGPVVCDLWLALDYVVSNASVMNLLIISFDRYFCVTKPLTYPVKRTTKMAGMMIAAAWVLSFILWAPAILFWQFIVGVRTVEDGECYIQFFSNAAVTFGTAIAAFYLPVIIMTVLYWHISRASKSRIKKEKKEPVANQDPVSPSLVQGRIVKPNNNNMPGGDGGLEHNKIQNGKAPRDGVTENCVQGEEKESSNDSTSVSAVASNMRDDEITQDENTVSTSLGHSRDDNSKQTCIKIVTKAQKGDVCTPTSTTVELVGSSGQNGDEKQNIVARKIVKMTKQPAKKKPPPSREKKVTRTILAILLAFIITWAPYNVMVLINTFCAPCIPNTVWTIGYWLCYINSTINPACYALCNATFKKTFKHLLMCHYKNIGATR

[3] = target: Substance-P receptor (Homo sapiens, UniProt P25103)
Sequence of Substance-P receptor (P25103 whole entry): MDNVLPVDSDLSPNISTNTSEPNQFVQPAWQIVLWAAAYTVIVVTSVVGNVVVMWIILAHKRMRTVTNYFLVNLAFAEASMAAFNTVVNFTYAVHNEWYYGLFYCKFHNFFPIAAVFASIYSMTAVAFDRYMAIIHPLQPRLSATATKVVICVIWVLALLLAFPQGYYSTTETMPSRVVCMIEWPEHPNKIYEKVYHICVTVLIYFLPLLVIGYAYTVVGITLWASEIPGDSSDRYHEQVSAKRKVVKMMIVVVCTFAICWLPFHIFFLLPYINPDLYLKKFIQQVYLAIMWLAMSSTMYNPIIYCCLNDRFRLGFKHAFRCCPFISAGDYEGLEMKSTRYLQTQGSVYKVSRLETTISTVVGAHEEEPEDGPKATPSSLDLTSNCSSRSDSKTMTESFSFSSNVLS

[4] = target: 5-hydroxytryptamine receptor 7 (Cavia porcellus, UniProt P50407)
Sequence of 5-hydroxytryptamine receptor 7 (P50407 whole entry): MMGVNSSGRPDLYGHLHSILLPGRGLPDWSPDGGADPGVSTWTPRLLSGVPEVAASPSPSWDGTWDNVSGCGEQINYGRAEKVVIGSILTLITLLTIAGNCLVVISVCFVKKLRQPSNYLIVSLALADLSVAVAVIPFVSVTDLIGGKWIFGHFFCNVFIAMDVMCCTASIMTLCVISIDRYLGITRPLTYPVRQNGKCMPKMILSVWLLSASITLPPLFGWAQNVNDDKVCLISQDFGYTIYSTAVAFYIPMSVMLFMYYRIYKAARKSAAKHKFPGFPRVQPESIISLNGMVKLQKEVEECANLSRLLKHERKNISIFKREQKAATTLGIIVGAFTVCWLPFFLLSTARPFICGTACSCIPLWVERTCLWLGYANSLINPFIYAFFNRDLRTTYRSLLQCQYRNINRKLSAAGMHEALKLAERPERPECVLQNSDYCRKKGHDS

[5] = target: Muscarinic acetylcholine receptor M3 (Rattus norvegicus, UniProt P08483)
Sequence of Muscarinic acetylcholine receptor M3 (P08483 whole entry): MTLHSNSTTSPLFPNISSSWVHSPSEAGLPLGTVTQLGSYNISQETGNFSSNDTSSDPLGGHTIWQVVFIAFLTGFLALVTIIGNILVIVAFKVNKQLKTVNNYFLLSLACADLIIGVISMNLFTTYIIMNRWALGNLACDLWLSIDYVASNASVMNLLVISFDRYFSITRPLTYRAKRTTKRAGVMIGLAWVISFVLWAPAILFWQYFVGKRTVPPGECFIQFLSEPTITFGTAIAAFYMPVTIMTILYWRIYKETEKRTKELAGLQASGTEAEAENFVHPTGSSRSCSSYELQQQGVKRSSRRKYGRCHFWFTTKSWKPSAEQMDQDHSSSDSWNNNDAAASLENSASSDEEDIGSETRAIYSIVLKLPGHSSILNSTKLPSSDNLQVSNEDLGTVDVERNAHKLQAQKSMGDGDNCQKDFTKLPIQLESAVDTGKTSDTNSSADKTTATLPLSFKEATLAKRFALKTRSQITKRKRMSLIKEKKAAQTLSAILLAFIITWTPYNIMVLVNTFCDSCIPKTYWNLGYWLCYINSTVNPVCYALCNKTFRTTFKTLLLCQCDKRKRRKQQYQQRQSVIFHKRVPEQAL

[6] = target: T2, 5-hydroxytryptamine receptor 1A (Rattus norvegicus, UniProt P19327)
T2 sequence (P19327 whole entry): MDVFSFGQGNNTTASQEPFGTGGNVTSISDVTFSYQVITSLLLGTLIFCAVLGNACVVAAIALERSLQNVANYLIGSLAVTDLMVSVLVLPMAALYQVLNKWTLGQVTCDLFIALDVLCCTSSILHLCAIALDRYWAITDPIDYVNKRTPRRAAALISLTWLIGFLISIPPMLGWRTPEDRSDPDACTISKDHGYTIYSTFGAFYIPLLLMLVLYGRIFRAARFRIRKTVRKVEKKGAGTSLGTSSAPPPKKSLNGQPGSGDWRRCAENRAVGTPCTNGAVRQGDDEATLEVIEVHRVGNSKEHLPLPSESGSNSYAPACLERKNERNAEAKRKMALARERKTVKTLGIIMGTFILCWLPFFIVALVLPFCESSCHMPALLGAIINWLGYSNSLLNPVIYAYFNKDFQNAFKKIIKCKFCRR

[7] = target: T3, Beta-1 adrenergic receptor (Oryctolagus cuniculus, UniProt A0A4Y6F0G0)
T3 sequence (A0A4Y6F0G0 whole entry): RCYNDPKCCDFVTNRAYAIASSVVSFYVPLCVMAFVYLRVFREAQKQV

[8] = target: Glutamate receptor 3 (Rattus norvegicus, UniProt P19492)
Sequence of Glutamate receptor 3 (P19492 whole entry): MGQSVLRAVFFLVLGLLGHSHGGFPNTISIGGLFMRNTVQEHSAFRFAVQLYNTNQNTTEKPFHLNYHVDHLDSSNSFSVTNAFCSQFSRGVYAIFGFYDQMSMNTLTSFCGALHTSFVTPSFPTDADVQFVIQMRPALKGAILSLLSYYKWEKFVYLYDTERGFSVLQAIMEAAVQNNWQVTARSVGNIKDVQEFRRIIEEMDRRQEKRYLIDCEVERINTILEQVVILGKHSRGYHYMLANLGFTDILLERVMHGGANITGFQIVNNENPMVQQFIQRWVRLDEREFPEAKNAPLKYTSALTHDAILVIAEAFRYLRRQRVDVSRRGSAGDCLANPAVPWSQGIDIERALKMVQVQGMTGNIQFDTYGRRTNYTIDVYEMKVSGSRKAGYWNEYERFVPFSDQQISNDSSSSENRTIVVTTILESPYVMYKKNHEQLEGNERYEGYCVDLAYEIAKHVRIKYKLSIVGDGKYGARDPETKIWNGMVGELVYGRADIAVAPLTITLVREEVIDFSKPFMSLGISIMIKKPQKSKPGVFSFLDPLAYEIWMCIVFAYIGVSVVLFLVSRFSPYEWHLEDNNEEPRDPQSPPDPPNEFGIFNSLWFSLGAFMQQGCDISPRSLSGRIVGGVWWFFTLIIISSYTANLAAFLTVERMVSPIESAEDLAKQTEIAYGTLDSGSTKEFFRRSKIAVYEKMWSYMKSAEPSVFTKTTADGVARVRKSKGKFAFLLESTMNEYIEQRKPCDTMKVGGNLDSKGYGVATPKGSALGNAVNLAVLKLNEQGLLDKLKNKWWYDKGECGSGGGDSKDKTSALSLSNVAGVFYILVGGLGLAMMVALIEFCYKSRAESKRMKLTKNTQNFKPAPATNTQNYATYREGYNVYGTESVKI

[9] = target: T4, 5-hydroxytryptamine receptor 3A (Mus musculus, UniProt P23979)
T4 sequence (P23979 whole entry): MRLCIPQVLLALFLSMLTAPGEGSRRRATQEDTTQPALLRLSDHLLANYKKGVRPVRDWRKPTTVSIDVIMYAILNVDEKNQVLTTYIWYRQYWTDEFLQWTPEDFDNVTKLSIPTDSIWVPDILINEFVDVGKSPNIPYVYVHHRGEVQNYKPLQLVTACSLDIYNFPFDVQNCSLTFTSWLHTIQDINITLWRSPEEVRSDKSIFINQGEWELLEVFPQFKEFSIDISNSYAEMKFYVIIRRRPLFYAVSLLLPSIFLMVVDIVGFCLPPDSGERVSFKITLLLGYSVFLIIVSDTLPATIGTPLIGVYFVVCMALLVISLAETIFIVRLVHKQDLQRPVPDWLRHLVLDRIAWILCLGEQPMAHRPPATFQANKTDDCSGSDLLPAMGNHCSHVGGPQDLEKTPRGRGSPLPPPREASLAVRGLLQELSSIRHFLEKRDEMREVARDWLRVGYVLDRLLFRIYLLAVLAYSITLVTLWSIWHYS

[10] = target: T5, Alpha-2B adrenergic receptor (Rattus norvegicus, UniProt P19328)
T5 sequence (P19328 whole entry): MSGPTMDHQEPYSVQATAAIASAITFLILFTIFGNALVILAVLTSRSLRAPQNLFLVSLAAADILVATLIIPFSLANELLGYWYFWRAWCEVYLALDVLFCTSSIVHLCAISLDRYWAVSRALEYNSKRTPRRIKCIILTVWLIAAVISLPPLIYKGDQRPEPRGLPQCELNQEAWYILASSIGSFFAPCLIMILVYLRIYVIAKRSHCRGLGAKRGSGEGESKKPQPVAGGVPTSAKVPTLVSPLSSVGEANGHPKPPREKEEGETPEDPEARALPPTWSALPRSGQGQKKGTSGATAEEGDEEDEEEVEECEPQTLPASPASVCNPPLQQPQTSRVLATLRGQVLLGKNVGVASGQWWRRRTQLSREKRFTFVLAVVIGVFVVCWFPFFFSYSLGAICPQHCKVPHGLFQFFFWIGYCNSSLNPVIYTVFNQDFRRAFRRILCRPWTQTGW

[11] = target: Mu-type opioid receptor (Cavia porcellus, UniProt P97266)
Sequence of Mu-type opioid receptor (P97266 whole entry): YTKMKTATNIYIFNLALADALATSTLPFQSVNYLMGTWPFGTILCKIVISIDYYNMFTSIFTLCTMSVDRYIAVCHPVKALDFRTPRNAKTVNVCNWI

[12] = target: T6, Alpha-2A adrenergic receptor (Oryctolagus cuniculus, UniProt Q5ZQK3)
T6 sequence (Q5ZQK3 whole entry): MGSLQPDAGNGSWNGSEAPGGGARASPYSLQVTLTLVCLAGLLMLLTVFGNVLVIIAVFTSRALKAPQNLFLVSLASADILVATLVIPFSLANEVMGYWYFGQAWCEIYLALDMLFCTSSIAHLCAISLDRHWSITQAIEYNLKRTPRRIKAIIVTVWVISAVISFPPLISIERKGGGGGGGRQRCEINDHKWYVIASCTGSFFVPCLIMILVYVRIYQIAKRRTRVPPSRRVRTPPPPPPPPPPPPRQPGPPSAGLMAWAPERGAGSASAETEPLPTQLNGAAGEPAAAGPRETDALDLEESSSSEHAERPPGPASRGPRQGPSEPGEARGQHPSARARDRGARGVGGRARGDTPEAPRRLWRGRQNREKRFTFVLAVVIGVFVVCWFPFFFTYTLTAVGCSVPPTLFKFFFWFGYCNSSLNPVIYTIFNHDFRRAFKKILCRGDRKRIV

[13] = target: Glutamate receptor ionotropic, NMDA 1 (Rattus norvegicus, UniProt P35439)
[14] = target: Beta-2 adrenergic receptor (Rattus norvegicus, UniProt P10608)
Sequence of Beta-2 adrenergic receptor (P10608 whole entry): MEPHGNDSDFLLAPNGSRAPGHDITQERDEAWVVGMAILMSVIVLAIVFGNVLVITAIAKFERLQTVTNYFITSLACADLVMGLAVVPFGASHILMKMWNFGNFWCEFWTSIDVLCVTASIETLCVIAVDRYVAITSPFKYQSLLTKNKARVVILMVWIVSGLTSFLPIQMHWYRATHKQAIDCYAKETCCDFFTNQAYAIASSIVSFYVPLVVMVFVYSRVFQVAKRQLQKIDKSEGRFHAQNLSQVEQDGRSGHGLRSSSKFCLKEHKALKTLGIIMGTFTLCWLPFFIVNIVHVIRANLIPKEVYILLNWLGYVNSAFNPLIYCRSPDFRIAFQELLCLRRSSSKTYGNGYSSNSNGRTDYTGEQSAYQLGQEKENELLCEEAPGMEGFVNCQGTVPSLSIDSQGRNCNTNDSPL

[15] = target: T7, Alpha-1B adrenergic receptor (Rattus norvegicus, UniProt P15823)
T7 sequence (P15823 whole entry): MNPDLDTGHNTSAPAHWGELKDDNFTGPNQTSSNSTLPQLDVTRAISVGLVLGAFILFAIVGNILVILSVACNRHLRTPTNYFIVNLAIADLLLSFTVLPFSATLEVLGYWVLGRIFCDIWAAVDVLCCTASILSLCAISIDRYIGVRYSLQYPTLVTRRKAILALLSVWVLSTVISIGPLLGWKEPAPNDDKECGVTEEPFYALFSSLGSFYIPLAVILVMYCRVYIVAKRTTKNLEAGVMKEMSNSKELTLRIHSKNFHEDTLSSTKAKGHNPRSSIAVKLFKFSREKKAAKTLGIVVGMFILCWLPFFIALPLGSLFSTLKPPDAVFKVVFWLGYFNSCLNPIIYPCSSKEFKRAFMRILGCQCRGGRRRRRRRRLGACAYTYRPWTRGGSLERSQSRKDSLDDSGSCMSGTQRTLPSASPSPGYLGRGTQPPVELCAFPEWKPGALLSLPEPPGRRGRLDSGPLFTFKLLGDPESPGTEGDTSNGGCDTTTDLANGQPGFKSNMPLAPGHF

[16] = target: Kappa-type opioid receptor (Cavia porcellus, UniProt P41144)
Sequence of Kappa-type opioid receptor (P41144 whole entry): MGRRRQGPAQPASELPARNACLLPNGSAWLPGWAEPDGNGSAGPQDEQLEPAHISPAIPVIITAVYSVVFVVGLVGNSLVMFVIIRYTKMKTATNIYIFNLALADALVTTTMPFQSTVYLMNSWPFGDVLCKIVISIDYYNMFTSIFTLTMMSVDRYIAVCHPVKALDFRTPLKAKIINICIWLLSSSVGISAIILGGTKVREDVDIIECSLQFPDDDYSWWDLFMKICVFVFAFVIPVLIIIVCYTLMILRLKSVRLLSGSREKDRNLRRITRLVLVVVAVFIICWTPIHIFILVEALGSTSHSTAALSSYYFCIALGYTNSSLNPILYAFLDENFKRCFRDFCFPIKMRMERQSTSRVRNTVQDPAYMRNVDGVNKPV

[17] = target: T8, Muscarinic acetylcholine receptor M1 (Rattus norvegicus, UniProt P08482)
T8 sequence (P08482 whole entry): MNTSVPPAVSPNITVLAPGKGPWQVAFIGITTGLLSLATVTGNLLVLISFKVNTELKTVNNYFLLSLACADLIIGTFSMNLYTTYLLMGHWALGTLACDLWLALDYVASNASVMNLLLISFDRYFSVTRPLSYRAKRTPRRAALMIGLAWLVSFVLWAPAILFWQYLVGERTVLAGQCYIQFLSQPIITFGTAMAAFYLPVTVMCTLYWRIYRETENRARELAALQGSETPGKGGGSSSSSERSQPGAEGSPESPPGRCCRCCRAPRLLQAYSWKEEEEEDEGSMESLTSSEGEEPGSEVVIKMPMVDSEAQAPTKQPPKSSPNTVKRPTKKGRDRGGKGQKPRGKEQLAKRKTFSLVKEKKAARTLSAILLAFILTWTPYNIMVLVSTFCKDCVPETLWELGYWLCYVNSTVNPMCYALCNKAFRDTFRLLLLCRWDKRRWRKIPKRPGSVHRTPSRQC

Sequence of Gamma-aminobutyric acid receptor subunit alpha-1 (P62813 whole entry): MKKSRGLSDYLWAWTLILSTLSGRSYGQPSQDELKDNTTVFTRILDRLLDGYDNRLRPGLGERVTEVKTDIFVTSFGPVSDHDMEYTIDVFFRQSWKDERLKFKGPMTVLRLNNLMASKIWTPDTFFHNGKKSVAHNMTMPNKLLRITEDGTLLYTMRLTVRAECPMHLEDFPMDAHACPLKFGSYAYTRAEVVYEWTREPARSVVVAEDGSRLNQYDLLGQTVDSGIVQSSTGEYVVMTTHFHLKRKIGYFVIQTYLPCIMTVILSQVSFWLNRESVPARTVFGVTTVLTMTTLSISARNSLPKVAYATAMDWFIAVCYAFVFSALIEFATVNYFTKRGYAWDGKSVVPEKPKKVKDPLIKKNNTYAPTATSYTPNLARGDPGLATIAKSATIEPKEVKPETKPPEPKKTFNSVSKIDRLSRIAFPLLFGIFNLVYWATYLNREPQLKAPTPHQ

Compound: COc1cc(OC)c(C(=O)CCCCN2CCC3(CC2)NC(=O)NC3=O)cc1NS(=O)(=O)c1ccc(C(F)(F)F)cc1 [N-[5-[5-(2,4-Dioxo-1,3,8-triazaspiro[4.5]decan-8-yl)-1-oxopentyl]-2,4-dimethoxyphenyl]-4-(trifluoromethyl)benzenesulfonamide]
- Ki [1]: > 10 µM
- Ki [2]: > 10 µM
- Ki [3]: > 10 µM
- Ki [4]: > 10 µM
- Ki [5]: > 10 µM
- Ki [6]: > 10 µM
- Ki [7]: > 10 µM
- Ki [8]: > 10 µM
- Ki [9]: > 10 µM
- Ki [10]: > 10 µM
- Ki [11]: > 10 µM
- Ki [12]: 0.316 µM
- Ki [13]: > 10 µM
- Ki [14]: > 10 µM
- Ki [15]: > 10 µM
- Ki [16]: > 10 µM
- Ki [17]: > 10 µM
